Source: patent US12102638B2 (Urovant Sciences GmbH, priority 2017, dated 2024)
Values joined by “and” are separate entries in the source; they are usually repeats but may differ in a detail not shown here. Identical values can stand only once.

Experiments:
[1] = tested on: healthy subjects; test: thorough QT single oral dose study; assay type: in vivo, human; conditions: for QTcF LS mean difference from placebo / QTcF change from baseline, LS mean: single 400 mg
[2] = tested on: patients with OAB; test: Phase 2b vital sign changes (HR, SBP, DBP); assay type: in vivo, human
Text: None led to discontinuation. The overall incidence of orthostatic symptoms was low.
Small differences in the percent of subjects exceeding categorical heart rate and blood pressure thresholds for vibegron were similar to those in the tolterodine arm.

[3] = tested on: healthy subjects; test: maximum MA4 heart rate in multiple-dose Phase 1 study; assay type: in vivo, human; conditions: Day 14
Description: More intensive assessments of heart rate and blood pressure were performed in healthy volunteers in several Phase 1 studies. […] Doses ranged from 25 to 400 mg once daily for 7 to 28 days depending on the cohort. Least squares mean and 90% confidence intervals of maximum change from baseline in moving average of heart rate over 4 hours postdose (MA4 HR) are presented in Table 17.

[4] = dose-Cmax and dose-AUC models / log-log regression and simulations from Phase 1 data; design: species or system human
Description: In order to contextualize PK parameters of a 75 mg dose, dose-Cmax and dose-AUC models were created using data from Phase 1 studies.

O=C(Nc1ccc(C[C@@H]2CC[C@H]([C@H](O)c3ccccc3)N2)cc1)[C@@H]1CCc2nccc(=O)n21 [vibegron, (6S)—N-[4-[[(2S,5R)-5-[(R)-hydroxy(phenyl)methyl]pyrrolidin-2-yl]methyl]phenyl]-4-oxo-7,8-dihydro-6H-pyrrolo[1,2-a]pyrimidine-6-carboxamide]
QTcF LS mean difference from placebo ([1]; 0.5 hour): 3.37 ms | QTcF change from baseline, LS mean ([1]; 0.5 hour): 2.37 ms | QTcF change from baseline, LS mean ([1]; 1 hour): 4.49 ms | QTcF LS mean difference from placebo ([1]; 1 hour (maximum)): 4.60 (2.71, 6.48) msec and 4.60 msec | QTcF LS mean difference from placebo ([1]; 2 hour): 0.81 ms | QTcF change from baseline, LS mean ([1]; 2 hour): 0.73 ms | QTcF LS mean difference from placebo ([1]; 3 hour): -1.04 ms | QTcF change from baseline, LS mean ([1]; 3 hour): -0.30 ms | QTcF LS mean difference from placebo ([1]; 4 hour): -2.96 ms | QTcF change from baseline, LS mean ([1]; 4 hour): -2.53 ms | QTcF LS mean difference from placebo ([1]; 6 hour): -2.70 ms | QTcF change from baseline, LS mean ([1]; 6 hour): -8.33 ms | QTcF LS mean difference from placebo ([1]; 8 hour): -3.24 ms | QTcF change from baseline, LS mean ([1]; 8 hour): -11.60 ms | QTcF LS mean difference from placebo ([1]; 10 hour): -4.14 ms | QTcF change from baseline, LS mean ([1]; 10 hour): -10.29 ms | QTcF LS mean difference from placebo ([1]; 12 hour): -4.00 ms | QTcF change from baseline, LS mean ([1]; 12 hour): -7.10 ms | QTcF LS mean difference from placebo ([1]; 23.5 hour): -0.34 ms | QTcF change from baseline, LS mean ([1]; 23.5 hour): -2.87 ms | effect on QTc or blood pressure ([1]; thorough QT study): no clinically meaningful effect on QTc or blood pressure | SBP and DBP mean changes at Week 1 and mean maximum changes over 8 weeks, difference between placebo and vibegron ([2]; 50 mg and 100 mg): < 1 mm Hg | percent of subjects with a change from baseline in DBP >15 mmHg ([2]; 100 mg): 1.3% | HR mean maximum changes over 8 weeks, difference to placebo ([2]; in vivo): < 2 bpm | DBP change from baseline, mean (95% CI) Max, week 1 to 8 ([2]; vibegron 3 mg): 5.03 (3.92, 6.15) mm Hg | DBP change from baseline, mean (95% CI), week 1 ([2]; vibegron 3 mg): −0.37 (−1.69, 0.95) mm Hg | HR change from baseline, mean (95% CI) maximum, week 1 to 8 ([2]; vibegron 3 mg): 5.57 (4.25, 6.90) bpm | HR change from baseline, mean (95% CI), week 1 ([2]; vibegron 3 mg): 0.36 (−0.90, 1.62) bpm | SBP change from baseline, mean (95% CI) maximum, week 1 to 8 ([2]; vibegron 3 mg): 7.14 (5.18, 9.10) mm Hg | SBP change from baseline, mean (95% CI), week 1 ([2]; vibegron 3 mg): −0.35 (−2.34, 1.65) mm Hg | DBP change from baseline, mean (95% CI) Max, week 1 to 8 ([2]; vibegron 15 mg): 6.37 (5.20, 7.53) mm Hg | DBP change from baseline, mean (95% CI), week 1 ([2]; vibegron 15 mg): 0.03 (−1.52, 1.59) mm Hg | HR change from baseline, mean (95% CI) maximum, week 1 to 8 ([2]; vibegron 15 mg): 6.56 (5.20, 7.92) bpm | HR change from baseline, mean (95% CI), week 1 ([2]; vibegron 15 mg): 0.35 (−1.15, 1.85) bpm | SBP change from baseline, mean (95% CI) maximum, week 1 to 8 ([2]; vibegron 15 mg): 8.93 (7.18, 10.67) mm Hg | SBP change from baseline, mean (95% CI), week 1 ([2]; vibegron 15 mg): −0.34 (−2.46, 1.78) mm Hg | DBP change from baseline, mean (95% CI) Max, week 1 to 8 ([2]; vibegron 50 mg): 4.19 (3.10, 5.29) mm Hg | DBP change from baseline, mean (95% CI), week 1 ([2]; vibegron 50 mg): −0.70 (−2.07, 0.67) mm Hg | HR change from baseline, mean (95% CI) maximum, week 1 to 8 ([2]; vibegron 50 mg): 5.49 (4.28, 6.69) bpm | HR change from baseline, mean (95% CI), week 1 ([2]; vibegron 50 mg): 0.29 (−0.88, 1.46) bpm | SBP change from baseline, mean (95% CI) maximum, week 1 to 8 ([2]; vibegron 50 mg): 7.01 (5.31, 8.70) mm Hg | SBP change from baseline, mean (95% CI), week 1 ([2]; vibegron 50 mg): −0.79 (−2.65, 1.08) mm Hg | DBP change from baseline, mean (95% CI) Max, week 1 to 8 ([2]; vibegron 100 mg): 4.80 (3.88, 5.72) mm Hg | DBP change from baseline, mean (95% CI), week 1 ([2]; vibegron 100 mg): −0.69 (−1.72, 0.34) mm Hg | HR change from baseline, mean (95% CI) maximum, week 1 to 8 ([2]; vibegron 100 mg): 6.12 (5.10, 7.15) bpm | HR change from baseline, mean (95% CI), week 1 ([2]; vibegron 100 mg): 0.35 (−0.69, 1.38) bpm | SBP change from baseline, mean (95% CI) maximum, week 1 to 8 ([2]; vibegron 100 mg): 6.51 (5.09, 7.93) mm Hg | SBP change from baseline, mean (95% CI), week 1 ([2]; vibegron 100 mg): −0.77 (−2.22, 0.68) mm Hg | Maximum MA4 HR change from baseline, LS mean ([3]; 25 mg once daily): 1.47 bpm | Maximum MA4 HR, Difference from Placebo ([3]; 25 mg once daily): −1.60 bpm | Maximum MA4 HR change from baseline, LS mean ([3]; 50 mg once daily): 1.50 bpm | Maximum MA4 HR, Difference from Placebo ([3]; 50 mg once daily): −1.57 bpm | Maximum MA4 HR change from baseline, LS mean ([3]; 100 mg once daily): 3.28 bpm | Maximum MA4 HR change from baseline, LS mean ([3]; 150 mg once daily): 3.17 bpm | Maximum MA4 HR, Difference from Placebo ([3]; 150 mg once daily): 0.10 bpm | Maximum MA4 HR change from baseline, LS mean ([3]; 200 mg once daily): 5.67 bpm | Maximum MA4 HR, Difference from Placebo ([3]; 200 mg once daily): 2.60 bpm | Maximum MA4 HR change from baseline, LS mean ([3]; 300 mg once daily): 9.06 bpm | Maximum MA4 HR, Difference from Placebo ([3]; 300 mg once daily): 5.98 bpm | Maximum MA4 HR change from baseline, LS mean ([3]; 400 mg once daily): 10.33 bpm | Maximum MA4 HR, Difference from Placebo ([3]; 400 mg once daily): 7.26 bpm | AUC of 75 mg lower than 200 mg single dose [4]: ~2 fold | AUC of 75 mg lower than 400 mg single dose [4]: ~6 fold | Cmax of 75 mg lower than 200 mg single dose [4]: approximately 3.3 fold | Cmax of 75 mg lower than 400 mg single dose [4]: ~9.2 fold | increase in Cmax on increase in dose from 50 to 100 mg [4]: ~3 fold | reduction in Cmax on decreasing the dose from 100 mg to 75 mg [4]: ~40%
